Laboratory results as given in paper PMC6197744, “Triazolo[4,5-d]pyrimidines as Validated General Control Nonderepressible 2 (GCN2) Protein Kinase Inhibitors Reduce Growth of Leukemia Cells” (Computational and Structural Biotechnology Journal, 2018).

Columns and labels:
Test in all cases: NCI-60 one-dose screen
Format in all cases: cell-based
SR = conditions: Homo sapiens, 48 h, Leukemia SR, read-out: Percent growth inhibition
Description: (§1) Compounds 1 and 2 were submitted to the National Cancer Institute NCI-60 Tumor Cell Screening Program (NCI number 800,700 and 800,701, respectively) for evaluation against the 60 cell line NCI panel at a single dose of 10 μM. […] Leukemia and breast cancer cell lines comprised the only cancer groups that were uniformly sensitive to both 1 and 2, with the greatest sensitivity seen in the leukemia SR cell line.
(§2) Compounds 1 and 2 were submitted to the NCI for growth inhibition screening against its panel of 60 cancer cell lines. The NCI screening protocol has extensively been described [[53], [54], [55], [56]]. Briefly, cancerous cell lines were grown in RPMI 1640 medium containing 5% fetal bovine serum and 2 mM L-glutamine. Depending on the doubling time of each cell line, 5000–40,000 cells were seeded in 96-well plates for 24 h. Cells were then treated with compounds 1 or 2 at a concentration of 10 μM and incubated for 48 h at 37 °C in a humidified atmosphere containing 5% CO2. The cells were then fixed and stained with sulforhodamine B (SRB) to determine their viability. The data were analyzed using a program called COMPARE to determine the percent growth inhibition of each compound.

UACC-257 = conditions: Homo sapiens; Melanoma UACC-257, 10 μM, 48 h; read-out: Percent growth inhibition
Description: as §1, §2

MDA-MB-231 = conditions: Homo sapiens; Breast MDA-MB-231, 10 μM, 48 h; read-out: Percent growth inhibition
Description: as §1, §2

CCRF-CEM = conditions: Homo sapiens, Leukemia CCRF-CEM, 48 h, read-out: Percent growth inhibition
Description: as §1, §2

UACC-62 = conditions: Homo sapiens; Melanoma UACC-62, 10 μM, 48 h; read-out: Percent growth inhibition
Description: as §1, §2

U251 = conditions: Homo sapiens, U-251; CNS U251, 10 μM, 48 h; read-out: Percent growth inhibition
Description: as §1, §2

COLO205 = conditions: Homo sapiens, COLO 205; Colon COLO205, 10 μM, 48 h; read-out: Percent growth inhibition
Description: as §1, §2

SF-539 = conditions: Homo sapiens; CNS SF-539, 10 μM, 48 h; read-out: Percent growth inhibition
Description: as §1, §2

HCT-116 = conditions: Homo sapiens, HCT-116, 48 h, Colon HCT-116, 10 μM, read-out: Percent growth inhibition
Description: as §1, §2

IGROV1 = conditions: Homo sapiens, IGROV-1; Ovarian IGROV1, 10 μM, 48 h; read-out: Percent growth inhibition
Description: as §1, §2

NCI-H522 = conditions: Homo sapiens; Non-Small Cell Lung NCI-H522, 10 μM, 48 h; read-out: Percent growth inhibition
Description: as §1, §2

SN12C = conditions: Homo sapiens, Renal SN12C, 48 h, read-out: Percent growth inhibition
Description: as §1, §2

OVCAR-3 = conditions: Homo sapiens; Ovarian OVCAR-3, 10 μM, 48 h; read-out: Percent growth inhibition
Description: as §1, §2

SK-OV-3 = conditions: Homo sapiens, SK-OV-3, 48 h, Ovarian SK-OV-3, 10 μM, read-out: Percent growth inhibition
Description: as §1, §2

SW-620 = conditions: Homo sapiens; Colon SW-620, 10 μM, 48 h; read-out: Percent growth inhibition
Description: as §1, §2

A498 = conditions: Homo sapiens; Renal A498, 10 μM, 48 h; read-out: Percent growth inhibition
Description: as §1, §2

T-47D = conditions: Homo sapiens, T47D, Breast T-47D, 48 h, read-out: Percent growth inhibition
Description: as §1, §2

RXF393 = conditions: Homo sapiens, RXF 393; Renal RXF393, 10 μM, 48 h; read-out: Percent growth inhibition
Description: as §1, §2

HCT-15 = conditions: Homo sapiens; Colon HCT-15, 10 μM, 48 h; read-out: Percent growth inhibition
Description: as §1, §2

MDA-MB-468 = conditions: Homo sapiens; Breast MDA-MB-468, 10 μM, 48 h; read-out: Percent growth inhibition
Description: as §1, §2

DU-145 = conditions: Homo sapiens; Prostate DU-145, 10 μM, 48 h; read-out: Percent growth inhibition
Description: as §1, §2

MCF7 = conditions: Homo sapiens; Breast MCF7, 10 μM, 48 h; read-out: Percent growth inhibition
Description: as §1, §2

HOP-62 = conditions: Homo sapiens; Non-Small Cell Lung HOP-62, 10 μM, 48 h; read-out: Percent growth inhibition
Description: as §1, §2

M14 = conditions: Homo sapiens; Melanoma M14, 10 μM, 48 h; read-out: Percent growth inhibition
Description: as §1, §2

| Structure (SMILES) | inhibition at 10 µM (SR) [%] | inhibition at 10 µM (UACC-257) [%] | inhibition at 10 µM (MDA-MB-231) [%] | inhibition at 10 µM (CCRF-CEM) [%] | inhibition at 10 µM (UACC-62) [%] | inhibition at 10 µM (U251) [%] | inhibition at 10 µM (COLO205) [%] | inhibition at 10 µM (SF-539) [%] | inhibition at 10 µM (HCT-116) [%] | inhibition at 10 µM (IGROV1) [%] | inhibition at 10 µM (NCI-H522) [%] | inhibition at 10 µM (SN12C) [%] | inhibition at 10 µM (OVCAR-3) [%] | inhibition at 10 µM (SK-OV-3) [%] | inhibition at 10 µM (SW-620) [%] | inhibition at 10 µM (A498) [%] | inhibition at 10 µM (T-47D) [%] | inhibition at 10 µM (RXF393) [%] | inhibition at 10 µM (HCT-15) [%] | inhibition at 10 µM (MDA-MB-468) [%] | other results |
| --- | --- | --- | --- | --- | --- | --- | --- | --- | --- | --- | --- | --- | --- | --- | --- | --- | --- | --- | --- | --- | --- |
| CCn1cc(Nc2ncc3nnn(-c4ccc(C(=O)OC)cc4)c3n2)cn1 [Compound 1, Methyl 4-(5-((1-ethyl-1H-pyrazol-4-yl)amino)-3H-[1,2,3]triazolo[4,5-d]pyrimidin-3-yl)benzoate] | 43.4 | 13.6 | 0.42 | 39.5 | 5.19 | 27.6 | 16.3 | -9.47 | 42.7 | -16.8 | 24.3 | 1.94 | 8.48 | 22 | -5.07 | 10.5 | 25.8 | -4.13 | 11.2 | 6.13 | inhibition at 10 µM (DU-145): -9.96%; inhibition at 10 µM (MCF7): 11.6%; inhibition at 10 µM (HOP-62): 21.1%; inhibition at 10 µM (M14): 17% |
| CCOc1ccc(-n2nnc3cnc(Nc4cnn(CC)c4)nc32)cc1 [Compound 2, 3-(4-Ethoxyphenyl)-N-(1-ethyl-1H-pyrazol-4-yl)-3H-[1,2,3]triazolo[4,5-d]pyrimidin-5-amine] | 57.5 | 21.3 | 7.57 | 14 | 1.67 | 24.3 | 29.9 | 32 | 43.7 | 5.39 | 31.8 | 12.5 | 6.71 | 46.3 | -17.3 | 44.1 | 20.7 | 43.8 | 0.66 | 9.91 | inhibition at 10 µM (DU-145): 2.46%; inhibition at 10 µM (MCF7): 24.2%; inhibition at 10 µM (HOP-62): 15.7%; inhibition at 10 µM (M14): 10.9% |
